Reference: US5591758A, “Organic nitrates, processes for their preparation and their use in the treatment of cardiovascular diseases” (Laboratoires Hoechst, SA, priority 1991, dated 1997)
Counter-ions that a name gives are not always drawn.

Columns and labels:
thoracic aorta = experiment: Vasorelaxant effect on isolated vessels (rat thoracic aorta rings without endothelium, precontracted with noradrenalin); parameters: species or system Wistar rats; details: for Emax: Rattus norvegicus, maximum inhibition of noradrenalin effect, 10^-8 to 10^-4 M substance, read-out: Maximum Relaxation; for IC50: rat aorta, 10^-7 M noradrenalin contraction
Procedure, shortened: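 Endothelium-denuded thoracic aorta rings from Wistar rats, held in Krebs-Ringer buffer (pH 7.4, 37 °C, 95% O2/5% CO2) under isometric tension and precontracted with 10^-7 M noradrenalin, received cumulative compound (10^-8 to 10^-4 M). Maximum relaxation given as percent; IC50 calculated when relaxation exceeded 50%.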

[1] = system: isolated pulmonary vessel; experiment: Relaxant activity on blood vessels isolated from guinea pigs (pulmonary artery); details: Cavia porcellus; guinea pig pulmonary artery, K+ depolarised, Ca2+ contraction; read-out: IC50 (relaxation of 50%)
Method: Determination of the relaxant activity of the compounds according to the invention on blood vessels isolated from guinea pigs.
The pulmonary artery of male guinea pigs (350-500 g) is isolated and cut into spiral tracts (1 mm wide, 15 mm long). […] After having removed the calcium from the tissues (Tyrode without calcium and 0.2 mM EDTA), the tracts are depolarised in the presence of a concentrated solution of K^+ ions (40 mM), which is produced by replacing the NaCl by equimolar amounts of KCl, and a contraction of long duration is then induced by Ca^2+ ions (0.5 mM).
The compounds studied are then introduced into the organ cell in increasing concentrations.
Each compound is tested on at least four vessel spiral tracts.

anesthetised pigs = experiment: Haemodynamic effects on anesthetised pigs; type: in vivo, pigs ("German land" race)
Method: Haemodynamic effects of the compounds according to the invention on anesthetised pigs or dogs
Pigs are of "German land" race (20-26 kg) and are used after fasting overnight.
In the case of pigs, sedation, analgesia and anesthesia are induced by ketamine HCl (20 mg/kg i.m.), methonidate HCl (10 mg/kg i.m.), xylacine HCl (3 mg/kg i.m.) and sodium pentobarbitol (25-30 mg/kg as bolus i.v. or 0.16 mg/kg/min as i.v. perfusion).
The pigs or dogs are placed under artificial respiration in ambient air. Analysis of the blood gases (pO2, pCO2) is carried out at regular intervals and oxygen can be supplied via the respirator, if necessary.
The haemodynamic parameters recorded include the left ventricular pressure (LVP; Millar PC350 Tip catheter inserted via the carotid artery), systemic blood pressure (BPs, BPd; full catheter in a femoral artery), the end pressure of the left ventricular diastole (LVEDP), the ventricular contractility (LVPdp/dtmax) and the heart rate (HR).
The haemodynamic variables are recorded continuously for 1 to 3 hours, as a function of the period of action of the compound.
The effects of the compounds studied are shown as the absolute difference with respect to the base value (bv) measured before administration of the compounds and are shown in Table VII (a,b,c).
An antianginal activity is estimated by a fall in the BPs and the LVEDP (fall in venous return).

anesthetised dogs = experiment: Haemodynamic effects on anesthetised dogs; type: in vivo, dogs (labrador/harrier cross); details: dogs
Procedure, shortened: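 Anaesthetised labrador/harrier dogs (16–26 kg; pentobarbital induction then 8 mg/kg/h i.v. infusion, artificial respiration) given compound i.d. or i.v. after ~45 min equilibration. LVP, systolic/diastolic BP, LVEDP, LVdP/dtmax and HR recorded continuously 1–3 h; values are absolute change from pre-dose baseline.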

| IC50 (thoracic aorta) | IC50 [1] | SMILES | Emax (thoracic aorta) | BPs (min), period of action (anesthetised pigs; pigs, 10,0 mg/kg i.d.) | BPs, difference to base value (anesthetised pigs; pigs, 10,0 mg/kg i.d.) | LVRDP (min), period of action (anesthetised pigs; pigs, 10,0 mg/kg i.d.) | LVRDP, difference to base value (anesthetised pigs; pigs, 10,0 mg/kg i.d.) | also measured |
| --- | --- | --- | --- | --- | --- | --- | --- | --- |
| 50 µM | 2 µM | O=C(O[C@@H]1CO[C@H]2[C@@H]1OC[C@@H]2O[N+](=O)[O-])c1ccccc1SCc1ccccc1 [Compound 28, 5-O-[2-[(Phenylmethyl)thio]benzoyl]-2-O-nitro-1,4:3,6-dianhydro-D-glucitol] | 70% | – | – | – | – | BPs (min), period of action (anesthetised pigs; pigs, 3,0 mg/kg i.d.): > 180 min; BPs, difference to base value (anesthetised pigs; pigs, 3,0 mg/kg i.d.): -28 mmHg; LVRDP (min), period of action (anesthetised pigs; pigs, 3,0 mg/kg i.d.): > 180 min; LVRDP, difference to base value (anesthetised pigs; pigs, 3,0 mg/kg i.d.): -6,0 mmHg |
| – | 2 µM | O=C(CNC(=O)c1ccccc1SCc1ccccc1)N[C@H]1CO[C@H]2[C@@H]1OC[C@@H]2O[N+](=O)[O-] [Compound 47, 5-[[[[2-[(Phenylmethyl)thio]benzoyl]amino]-1-oxoethyl]amino]-5-deoxy-2-O-nitro-1,4:3,6-dianhydro-L-iditol] | – | > 120 min | -10 mmHg | > 90 min | -1,0 mmHg | – |
| 25 µM | – | CC1(C)SC[C@@H](C(=O)N[C@H]2CO[C@H]3[C@@H]2OC[C@@H]3O[N+](=O)[O-])N1C=O [Compound 31, 5-[[(3-Formyl-2,2-dimethyl-4-L-thiazolidinyl)carbonyl]amino]-5-deoxy-2-O-nitro-1,4:3,6-dianhydro-L-iditol monohydrochloride] | 83% | > 60 min | -15 mmHg | > 60 min | -2,0 mmHg | – |
| – | – | CC(=O)NCSc1ccccc1C(=O)O[C@H]1CO[C@H]2[C@@H]1OC[C@H]2O[N+](=O)[O-] [Compound 23] | – | – | 0 mmHg | – | 0 mmHg | – |
| 20 µM | 6 µM | O=C(CNC(=O)OCc1ccccc1)N[C@H]1CO[C@H]2[C@@H]1OC[C@@H]2O[N+](=O)[O-] [Compound 4, N-[(Benzyloxy)carbonyl]glycine amide of 5-amino-5-deoxy-2-O-nitro-1,4:3,6-dianhydro-L-iditol] | 75% | – | – | – | – | BPs (min), period of action (anesthetised pigs; pigs, 3,0 mg/kg i.d.): > 120 min; BPs, difference to base value (anesthetised pigs; pigs, 3,0 mg/kg i.d.): -28 mmHg; LVRDP (min), period of action (anesthetised pigs; pigs, 3,0 mg/kg i.d.): > 120 min; LVRDP, difference to base value (anesthetised pigs; pigs, 3,0 mg/kg i.d.): -2,0 mmHg |
| 10 µM | 32 µM | O=C(N[C@H]1CO[C@H]2[C@@H]1OC[C@@H]2O[N+](=O)[O-])[C@@H]1CSCN1 [Compound 30, 5-[[(4-L-Thiazolidinyl)carbonyl]amino]-5-deoxy-2-O-nitro-1,4:3,6-dianhydro-L-iditol monohydrochloride] | 100% | – | – | – | – | BPs (min), period of action (anesthetised pigs; pigs, 3,0 mg/kg i.d.): > 60 min; BPs, difference to base value (anesthetised pigs; pigs, 3,0 mg/kg i.d.): -40 mmHg; LVRDP (min), period of action (anesthetised pigs; pigs, 3,0 mg/kg i.d.): > 60 min; LVRDP, difference to base value (anesthetised pigs; pigs, 3,0 mg/kg i.d.): -2,0 mmHg |
| > 100 µM | > 100 µM | CC1(C)SC[C@@H](C(=O)NCC(=O)N[C@H]2CO[C@H]3[C@@H]2OC[C@@H]3O[N+](=O)[O-])N1C=O [Compound 48, 5-[[2-[[(3-Formyl-2,2-dimethyl-4-L-thiazolidinyl)carbonyl]amino]-1-oxoethyl]amino]-5-deoxy-2-O-nitro-1,4:3,6-dianhydro-L-iditol] | 25% | > 180 min | -25 mmHg | > 180 min | -4,0 mmHg | – |
| – | – | O=C(O[C@@H]1CO[C@H]2[C@@H]1OC[C@@H]2O[N+](=O)[O-])c1ccccc1SSc1ccccc1C(=O)O[C@@H]1CO[C@H]2[C@@H]1OC[C@@H]2O[N+](=O)[O-] [Compound 29, Bis[5-O-[(2-thio)benzoyl]-2-O-nitro-1,4:3,6-dianhydro-D-glucitol]] | – | – | – | – | – | BPs (min), period of action (anesthetised pigs; pigs, 3 mg/kg i.v.): 10 min; BPs, difference to base value (anesthetised pigs; pigs, 3 mg/kg i.v.): -42 mmHg; LVRDP (min), period of action (anesthetised pigs; pigs, 3 mg/kg i.v.): 16 min; LVRDP, difference to base value (anesthetised pigs; pigs, 3 mg/kg i.v.): -2,0 mmHg |
| > 100 µM | – | CC(=O)NCSC[C@H](N)C(=O)N[C@H]1CO[C@H]2[C@@H]1OC[C@@H]2O[N+](=O)[O-] [Compound 34, S-[(Acetylamino)methyl]-L-cysteine amide of 5-amino-5-deoxy-2-O-nitro-1,4:3,6-dianhydro-L-iditol monohydrochloride] | 25% | > 180 min | -22 mmHg | > 180 min | -4,0 mmHg | – |
| 33 µM | – | CC(=O)NCSC[C@H](N)C(=O)N[C@H]1CO[C@H]2[C@@H]1OC[C@H]2O[N+](=O)[O-] [Compound 42, S-[(Acetylamino)methyl]-L-cysteine amide of 2-amino-2-deoxy-5-O-nitro-1,4:3,6-dianhydro-D-glucitol monohydrochloride] | 92% | – | – | – | – | BPs (min), period of action (anesthetised dogs; 10 mg/kg i.v.): > 90 min; BPs, difference to base value (anesthetised dogs; 10 mg/kg i.v.): -10 mmHg; LVEDP (min), period of action (anesthetised dogs; 10 mg/kg i.v.): 0 min; LVEDP, difference to base value (anesthetised dogs; 10 mg/kg i.v.): 0,0 mmHg |
| 87 µM | – | CC(C)(C)OC(=O)N1CSC[C@H]1C(=O)NCC(=O)N[C@H]1CO[C@H]2[C@@H]1OC[C@@H]2O[N+](=O)[O-] [Compound 60] | 53% | – | – | – | – | BPs (min), period of action (anesthetised dogs; 3 mg/kg i.d.): > 60 min; BPs, difference to base value (anesthetised dogs; 3 mg/kg i.d.): -15 mmHg; LVEDP (min), period of action (anesthetised dogs; 3 mg/kg i.d.): 0 min; LVEDP, difference to base value (anesthetised dogs; 3 mg/kg i.d.): 0,0 mmHg |

| SMILES | IC50 (thoracic aorta) | IC50 [1] | Emax (thoracic aorta) | BPs (min), period of action (anesthetised pigs; pigs, 10,0 mg/kg i.d.) | BPs, difference to base value (anesthetised pigs; pigs, 10,0 mg/kg i.d.) | LVRDP (min), period of action (anesthetised pigs; pigs, 10,0 mg/kg i.d.) | LVRDP, difference to base value (anesthetised pigs; pigs, 10,0 mg/kg i.d.) | also measured |
| --- | --- | --- | --- | --- | --- | --- | --- | --- |
| CC(C)(C)OC(=O)NCC(=O)N[C@H]1CO[C@H]2[C@@H]1OC[C@@H]2O[N+](=O)[O-] [Compound 5, N-[(t-Butoxy)carbonyl]glycine amide of 5-amino-5-deoxy-2-O-nitro-1,4:3,6-dianhydro-L-iditol] | 25 µM | 14 µM | 70% | – | – | – | – | BPs (min), period of action (anesthetised pigs; pigs, 1,0 mg/kg i.d.): > 120 min; BPs, difference to base value (anesthetised pigs; pigs, 1,0 mg/kg i.d.): -24 mmHg; LVRDP (min), period of action (anesthetised pigs; pigs, 1,0 mg/kg i.d.): > 120 min; LVRDP, difference to base value (anesthetised pigs; pigs, 1,0 mg/kg i.d.): -4,0 mmHg |
| CC(=O)NCSC[C@H](NC(=O)OC(C)(C)C)C(=O)O[C@H]1CO[C@H]2[C@@H]1OC[C@H]2O[N+](=O)[O-] [Compound 20, S-[(Acetylamino)methyl]-N-[(t-butoxy)carbonyl]-L-cysteine ester of 5-O-nitro-1,4:3,6-dianhydro-D-glucitol] | 28 µM | – | 85% | – | – | – | – | BPs (min), period of action (anesthetised pigs; pigs, 10 mg/kg i.v.): 5 min; BPs, difference to base value (anesthetised pigs; pigs, 10 mg/kg i.v.): -20 mmHg; LVRDP (min), period of action (anesthetised pigs; pigs, 10 mg/kg i.v.): 5 min; LVRDP, difference to base value (anesthetised pigs; pigs, 10 mg/kg i.v.): -4,0 mmHg |
| CC(=O)NCSC[C@H](NC(=O)OC(C)(C)C)C(=O)N[C@H]1CO[C@H]2[C@@H]1OC[C@@H]2O[N+](=O)[O-] [Compound 33, S-[(Acetylamino)methyl]-N-[(t-butoxy)carbonyl]-L-cysteine amide of 5-amino-5-deoxy-2-O-nitro-1,4:3,6-dianhydro-L-iditol] | > 100 µM | – | 50% | > 60 min | -12 mmHg | > 60 min | -3,0 mmHg | – |
| CC(=O)NCSC[C@H](NC(=O)OC(C)(C)C)C(=O)N[C@H]1CO[C@H]2[C@@H]1OC[C@H]2O[N+](=O)[O-] [Compound 41, S-[(Acetylamino)methyl]-N-[(t-butoxy)carbonyl]-L-cysteine amide of 2-amino-2-deoxy-5-O-nitro-1,4:3,6-dianhydro-D-glucitol] | 63 µM | – | 70% | – | – | – | – | BPs (min), period of action (anesthetised dogs; 3 mg/kg i.d.): > 180 min; BPs, difference to base value (anesthetised dogs; 3 mg/kg i.d.): -25 mmHg; LVEDP (min), period of action (anesthetised dogs; 3 mg/kg i.d.): 0 min; LVEDP, difference to base value (anesthetised dogs; 3 mg/kg i.d.): 0,0 mmHg |
| C[C@H](NC(=O)[C@@H]1CSCN1C(=O)OC(C)(C)C)C(=O)N[C@H]1CO[C@H]2[C@@H]1OC[C@@H]2O[N+](=O)[O-] [Compound 61, 5-[[2-[[(3-t-butoxycarbonyl-4-n-thiazolidinyl)carbonyl]amino]-1-((2S)-2-methyl)-oxoethyl]amino]-5-deoxy-2-O-nitro-1,4:3,6-dianhydro-L-iditol] | 32 µM | – | 100% | – | – | – | – | BPs (min), period of action (anesthetised dogs; 3 mg/kg i.d.): > 180 min; BPs, difference to base value (anesthetised dogs; 3 mg/kg i.d.): -25 mmHg; LVEDP (min), period of action (anesthetised dogs; 3 mg/kg i.d.): > 180 min; LVEDP, difference to base value (anesthetised dogs; 3 mg/kg i.d.): -1,5 mmHg |
